This note sets out measurements from ChEMBL document CHEMBL1128779, “Synthesis of a fluorescent labeled thromboxane A2 receptor antagonist” (Bioorg Med Chem Lett, 1995).

The target in this experiment is T1, Thromboxane A2 receptor (Homo sapiens, UniProt P21731).
T1 sequence (P21731 whole entry): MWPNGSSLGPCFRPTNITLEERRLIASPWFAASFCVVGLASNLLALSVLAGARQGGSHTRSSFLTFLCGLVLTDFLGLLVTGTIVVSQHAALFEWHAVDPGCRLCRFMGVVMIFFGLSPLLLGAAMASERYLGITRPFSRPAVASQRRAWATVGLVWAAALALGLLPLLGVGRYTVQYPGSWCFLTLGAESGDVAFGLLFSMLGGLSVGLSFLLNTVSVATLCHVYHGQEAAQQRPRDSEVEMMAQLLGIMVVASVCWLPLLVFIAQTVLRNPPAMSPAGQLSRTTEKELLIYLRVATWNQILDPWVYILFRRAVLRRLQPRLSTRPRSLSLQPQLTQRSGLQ
Put plainly: Binding affinity of Thromboxane A2 (TXA2) receptor using [3H]-SQ 29,548 radioligand in washed human platelets.

The term Kd denotes the concentration at which binding is half-saturated. Low readings indicate a tighter complex, high ones a looser complex. On to `CC1(C)C2CC[C@@H](Cc3cccc4ccc(=O)oc34)C1C2` (some centres not stated), for which the Kd amounted to 424 nM.
For `CC1(C)C2CC[C@H](Cc3cccc4ccc(=O)oc34)C1C2` (some centres not stated) the value was 138 nM.
